Measured values: patent US20090291150A1, “METHOD AND COMPOSITIONS FOR TREATING AND […] BY […]-SENSING ION CHANNEL ACTIVITY” (priority 2008, published 2009)

Key:
[1] = system: PTZ-evoked lethal seizures; test: CO2 inhalation at onset of PTZ-evoked generalized seizures, survival; format: in vivo, mouse; details: 90 mg/kg PTZ IP, 10% CO2 in air for 15 minutes from onset of generalized seizures
Method: Age (13-16 weeks) and gender-matched ASIC1a+/+ and ASIC1a−/− mice were injected IP with 90 mg/kg PTZ to test the anti-epileptic effects of CO2. A high dose of PTZ was administered to evoke lethal seizures in mice of both genotypes (FIG. 6a). Kaplan-Meier survival analysis of ASIC1a+/+ and ASIC1a−/− mice in response to 90 mg/kg PTZ while breathing compressed air was conducted (+/+, n 7; −/−, n=7). Both mice had the same rate of reduced survival (Mantel-Cox Log Rank, p=0.582).
After the onset of generalized-clonic seizures (identified behaviorally by clonus in all four limbs), compressed air or 10% CO2 (in air) was rapidly administered in an airtight Plexiglas chamber for 15 minutes (FIG. 6b). The onset latency and time of CO2 administration was similar between genotypes (inset) (unpaired T-test, df (14), t=0.663, p=0.518). The chamber was perfused with CO2 until minute 15, and then switched to compressed air for the duration of the trial (+/+, n=8; −/−, n=8). […] In the ASIC1a−/− mice, seizures continued to progress rapidly to death. All of the ASIC1a+/+ mice survived until the CO2 was switched back to air at minute 15, whereupon the mice rapidly died. The results verified the in vitro findings and taught that ASIC1a also mediates the anti-epileptic effects of low pH in vivo.

[2] = biological target: T1, ASIC1a (Mus musculus, UniProt Q6NXK8); test: Kainate-induced seizures after ICV injection of PcTx1 in wild-type mice; format: in vivo; details: ICV injection 2 hours before kainate 20 mg/kg IP
T1 construct: from tissue; host or cells: brain of living wild-type mice (C57/B16 background), ICV injection
T1 sequence (Q6NXK8 1-526): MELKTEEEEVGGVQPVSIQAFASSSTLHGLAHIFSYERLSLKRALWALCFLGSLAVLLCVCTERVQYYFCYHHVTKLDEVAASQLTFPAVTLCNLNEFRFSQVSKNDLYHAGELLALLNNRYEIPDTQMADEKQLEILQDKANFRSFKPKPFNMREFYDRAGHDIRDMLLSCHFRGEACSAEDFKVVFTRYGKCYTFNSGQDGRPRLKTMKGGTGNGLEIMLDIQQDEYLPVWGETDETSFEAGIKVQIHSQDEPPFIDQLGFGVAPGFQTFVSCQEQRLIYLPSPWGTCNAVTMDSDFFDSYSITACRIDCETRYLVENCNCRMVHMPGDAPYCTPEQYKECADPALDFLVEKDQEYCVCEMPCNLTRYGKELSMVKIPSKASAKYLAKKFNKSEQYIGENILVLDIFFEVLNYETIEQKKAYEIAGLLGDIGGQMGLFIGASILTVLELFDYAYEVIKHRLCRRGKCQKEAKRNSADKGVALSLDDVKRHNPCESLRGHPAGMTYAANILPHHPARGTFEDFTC
Method: Similar effects on seizure activity with both ASIC1a gene disruption and pharmalogical blockade indicate that developmental abnormalities were not responsible for the effects in ASIC1a−/− mice.
Left-lateral, ICV guide cannulae were implanted in anesthetized mice (relative to bregma: anteroposterior −0.3 mm, lateral−1.0 mm, ventral=3.0 mm) and verified by methylene blue injection after euthanasia. Three to five days later, 5 uL or PcTx1-containing venom (SpiderPharm, Yarnell, Ariz.) ([…]) was injected in ACSF (in mM: NaCl 124, KCl 3, NaH2PO4 1.2, MgSO4 1.2, CaCl2 2, NaHCO3 26) or ACSF alone into wild-type mice using a 10 uL-Hamilton syringe connected to a 30-gauge injection (over 10 seconds). Two hours later, mice were injected with kainate (20 mg/kg, IP) then mouse behavior was scored. Continuous, tonic-clonic seizures were identified by tonus and clonus in all four limbs with loss of posture lasting greater than 60 seconds.

| Compound | effect on lethal seizures (survival) ([1]; ASIC1a-/- mice) | effect on lethal seizures (survival) ([1]; WT (ASIC1a+/+) mice) | incidence of continuous GTCS following kainate injection [2] |
| --- | --- | --- | --- |
| O=C=O [CO2, carbon dioxide] | had little effect | prevented lethal seizures | – |
| psalmotoxin 1 [PcTx1] | – | – | increased the incidence of continuous GTCS |
